In patent publication US20230284620A1, “MIXTURES OF PYRIDAZINES AS HERBICIDAL COMPOSITIONS” (SYNGENTA CROP PROTECTION AG, priority 2020, published 2023):

How the values were obtained:
Experiment in all cases: Post-emergence glasshouse herbicide test, visual phytotoxicity
Format in all cases: in vivo
Conditions in all cases: 13 days
Stellaria media (STEME) = system: Stellaria media (STEME)
Procedure: (§1) Seeds of Setaria faberi (SETFA), Echinochloa crus-galli (ECHCG), Digitaria sanguinalis (DIGSA), Lolium perenne (LOLPE), Alopecurus myosuroides (ALOMY), Chenopodium album (CHEAL), Ipomoea hederacea (IPOHE), Stellaria media (STEME), Abutilon threophrasti (ABUTH) and Amaranthus retroflexus (AMARE) were sown in standard sterilised soil in pots. After cultivation for 8 days under controlled conditions in a glasshouse (at 24/19° C., day/night; 16 hours light; no humidity control), the plants were sprayed at 500 l/Ha with an aqueous spray solution derived from the formulation of the technical active ingredients in a small amount of acetone and a solvent and emulsifier mixture referred to as IF50 (11.12% Emulsogen EL360 TM+44.44% N-methylpyrrolidone+44.44% Dowanol DPM glycol ether), to create a 50 g/l solution which was then diluted using 0.2% Genapol X080 (CAS Number: 9043-30-5) as diluent to give the desired final dose of test compound.
(§2) Where active ingredients were applied as mixtures, aqueous spray solutions were prepared as above, containing both active ingredients.
(§3) The test plants were then grown under controlled conditions in a glasshouse (at 24/18° C., day/night; 15 hours light; 50% humidity) and watered twice daily. After 13 days, the test was evaluated visually for percentage phytotoxicity to the plants (where 100=total damage to plant; 0=no damage to plant; and NC=not captured) when compared to control untreated plants. Two to four replicates were applied for each treatment in a randomised block test design.
(§4) 22., E=X+Y−(X*Y/100), where • X=average percent phytotoxicity of herbicide A when applied at a certain rate • Y=average percent phytotoxicity using herbicide B when applied at a certain rate • E=the expected effect of the mixture of herbicides A and B as calculated from the Colby formula.

[1] = system: Ipomoea hederacea (IPOHE)
Procedure: as §1, §2, §3, §4

[2] = system: Abutilon threophrasti (ABUTH)
Procedure: as §1, §2, §3, §4

[3] = system: Digitaria sanguinalis (DIGSA)
Procedure: as §1, §2, §3, §4

Lolium perenne (LOLPE) = system: Lolium perenne (LOLPE)
Procedure: as §1, §2, §3, §4

[4] = system: Alopecurus myosuroides (ALOMY)
Procedure: as §1, §2, §3, §4

[5] = system: Echinochloa crus-galli (ECHCG)
Procedure: as §1, §2, §3, §4

Setaria faberi (SETFA) = system: Setaria faberi (SETFA)
Procedure: as §1, §2, §3, §4

[6] = system: Amaranthus retroflexus (AMARE)
Procedure: as §1, §2, §3, §4

[7] = system: Chenopodium album (CHEAL)
Procedure: as §1, §2, §3, §4

CS(=O)(=O)c1ccc(C(=O)C2C(=O)CCCC2=O)c(Cl)c1OCCC1OCCO1 [B-II]
percentage phytotoxicity STEME (Stellaria media (STEME); 0.625 g/ha): 0%
percentage phytotoxicity STEME (Stellaria media (STEME); 1.25 g/ha): 10%
percentage phytotoxicity STEME (Stellaria media (STEME); 2.5 g/ha): 28%
percentage phytotoxicity STEME (Stellaria media (STEME); 5 g/ha): 53%
percentage phytotoxicity STEME (Stellaria media (STEME); 10 g/ha): 70%
percentage phytotoxicity IPOHE ([1]; 0.625 g/ha): 5%
percentage phytotoxicity IPOHE ([1]; 1.25 g/ha): 15%
percentage phytotoxicity IPOHE ([1]; 2.5 g/ha): 20%
percentage phytotoxicity IPOHE ([1]; 5 g/ha): 45%
percentage phytotoxicity IPOHE ([1]; 10 g/ha): 55%
percentage phytotoxicity ABUTH ([2]; 0.625 g/ha): 0%
percentage phytotoxicity ABUTH ([2]; 1.25 g/ha): 40%
percentage phytotoxicity ABUTH ([2]; 2.5 g/ha): 43%
percentage phytotoxicity ABUTH ([2]; 5 g/ha): 58%
percentage phytotoxicity ABUTH ([2]; 10 g/ha): 70%
percentage phytotoxicity DIGSA ([3]; 0.625 g/ha): 0%
percentage phytotoxicity DIGSA ([3]; 1.25 g/ha): 5%
percentage phytotoxicity DIGSA ([3]; 2.5 g/ha): 0%
percentage phytotoxicity DIGSA ([3]; 5 g/ha): 10%
percentage phytotoxicity DIGSA ([3]; 10 g/ha): 3%
percentage phytotoxicity LOLPE (Lolium perenne (LOLPE); 0.625 g/ha): 0%
percentage phytotoxicity LOLPE (Lolium perenne (LOLPE); 1.25 g/ha): 5%
percentage phytotoxicity LOLPE (Lolium perenne (LOLPE); 2.5 g/ha): 0%
percentage phytotoxicity LOLPE (Lolium perenne (LOLPE); 5 g/ha): 5%
percentage phytotoxicity LOLPE (Lolium perenne (LOLPE); 10 g/ha): 0%
percentage phytotoxicity ALOMY ([4]; 0.625 g/ha): 0%
percentage phytotoxicity ALOMY ([4]; 1.25 g/ha): 3%
percentage phytotoxicity ALOMY ([4]; 2.5 g/ha): 0%
percentage phytotoxicity ALOMY ([4]; 5 g/ha): 5%
percentage phytotoxicity ALOMY ([4]; 10 g/ha): 0%
percentage phytotoxicity ECHCG ([5]; 0.625 g/ha): 0%
percentage phytotoxicity ECHCG ([5]; 1.25 g/ha): 5%
percentage phytotoxicity ECHCG ([5]; 2.5 g/ha): 0%
percentage phytotoxicity ECHCG ([5]; 5 g/ha): 8%
percentage phytotoxicity ECHCG ([5]; 10 g/ha): 5%
percentage phytotoxicity SETFA (Setaria faberi (SETFA); 0.625 g/ha): 0%
percentage phytotoxicity SETFA (Setaria faberi (SETFA); 1.25 g/ha): 3%
percentage phytotoxicity SETFA (Setaria faberi (SETFA); 2.5 g/ha): 0%
percentage phytotoxicity SETFA (Setaria faberi (SETFA); 5 g/ha): 5%
percentage phytotoxicity SETFA (Setaria faberi (SETFA); 10 g/ha): 0%
percentage phytotoxicity AMARE ([6]; 0.625 g/ha): 0%
percentage phytotoxicity AMARE ([6]; 1.25 g/ha): 13%
percentage phytotoxicity AMARE ([6]; 2.5 g/ha): 25%
percentage phytotoxicity AMARE ([6]; 5 g/ha): 53%
percentage phytotoxicity AMARE ([6]; 10 g/ha): 58%
percentage phytotoxicity CHEAL ([7]; 0.625 g/ha): 5%
percentage phytotoxicity CHEAL ([7]; 1.25 g/ha): 15%
percentage phytotoxicity CHEAL ([7]; 2.5 g/ha): 30%
percentage phytotoxicity CHEAL ([7]; 5 g/ha): 55%
percentage phytotoxicity CHEAL ([7]; 10 g/ha): 65%

COc1c(Cl)ccc(-c2nc(C(=O)OCc3ccccc3)c(Cl)c(N)c2F)c1F [B-I]
percentage phytotoxicity STEME (Stellaria media (STEME); 0.625 g/ha): 63%
percentage phytotoxicity STEME (Stellaria media (STEME); 1.25 g/ha): 65%
percentage phytotoxicity STEME (Stellaria media (STEME); 2.5 g/ha): 80%
percentage phytotoxicity STEME (Stellaria media (STEME); 5 g/ha): 85%
percentage phytotoxicity STEME (Stellaria media (STEME); 10 g/ha): 90%
percentage phytotoxicity IPOHE ([1]; 0.625 g/ha): 53%
percentage phytotoxicity IPOHE ([1]; 1.25 g/ha): 58%
percentage phytotoxicity IPOHE ([1]; 2.5 g/ha): 58%
percentage phytotoxicity IPOHE ([1]; 5 g/ha): 63%
percentage phytotoxicity IPOHE ([1]; 10 g/ha): 75%
percentage phytotoxicity ABUTH ([2]; 0.625 g/ha): 78%
percentage phytotoxicity ABUTH ([2]; 1.25 g/ha): 80%
percentage phytotoxicity ABUTH ([2]; 2.5 g/ha): 83%
percentage phytotoxicity ABUTH ([2]; 5 g/ha): 90%
percentage phytotoxicity ABUTH ([2]; 10 g/ha): 85%
percentage phytotoxicity DIGSA ([3]; 0.625 g/ha): 0%
percentage phytotoxicity DIGSA ([3]; 1.25 g/ha): 8%
percentage phytotoxicity DIGSA ([3]; 2.5 g/ha): 0%
percentage phytotoxicity DIGSA ([3]; 5 g/ha): 0%
percentage phytotoxicity DIGSA ([3]; 10 g/ha): 0%
percentage phytotoxicity LOLPE (Lolium perenne (LOLPE); 0.625 g/ha): 0%
percentage phytotoxicity LOLPE (Lolium perenne (LOLPE); 1.25 g/ha): 10%
percentage phytotoxicity LOLPE (Lolium perenne (LOLPE); 2.5 g/ha): 0%
percentage phytotoxicity LOLPE (Lolium perenne (LOLPE); 5 g/ha): 0%
percentage phytotoxicity LOLPE (Lolium perenne (LOLPE); 10 g/ha): 0%
percentage phytotoxicity ALOMY ([4]; 0.625 g/ha): 0%
percentage phytotoxicity ALOMY ([4]; 1.25 g/ha): 0%
percentage phytotoxicity ALOMY ([4]; 2.5 g/ha): 0%
percentage phytotoxicity ALOMY ([4]; 5 g/ha): 0%
percentage phytotoxicity ALOMY ([4]; 10 g/ha): 5%
percentage phytotoxicity ECHCG ([5]; 0.625 g/ha): 0%
percentage phytotoxicity ECHCG ([5]; 1.25 g/ha): 8%
percentage phytotoxicity ECHCG ([5]; 2.5 g/ha): 0%
percentage phytotoxicity ECHCG ([5]; 5 g/ha): 0%
percentage phytotoxicity ECHCG ([5]; 10 g/ha): 10%
percentage phytotoxicity SETFA (Setaria faberi (SETFA); 0.625 g/ha): 0%
percentage phytotoxicity SETFA (Setaria faberi (SETFA); 1.25 g/ha): 5%
percentage phytotoxicity SETFA (Setaria faberi (SETFA); 2.5 g/ha): 0%
percentage phytotoxicity SETFA (Setaria faberi (SETFA); 5 g/ha): 0%
percentage phytotoxicity SETFA (Setaria faberi (SETFA); 10 g/ha): 5%
percentage phytotoxicity AMARE ([6]; 0.625 g/ha): 63%
percentage phytotoxicity AMARE ([6]; 1.25 g/ha): 70%
percentage phytotoxicity AMARE ([6]; 2.5 g/ha): 80%
percentage phytotoxicity AMARE ([6]; 5 g/ha): 80%
percentage phytotoxicity AMARE ([6]; 10 g/ha): 93%
percentage phytotoxicity CHEAL ([7]; 0.625 g/ha): 85%
percentage phytotoxicity CHEAL ([7]; 1.25 g/ha): 73%
percentage phytotoxicity CHEAL ([7]; 2.5 g/ha): 83%
percentage phytotoxicity CHEAL ([7]; 5 g/ha): 91%
percentage phytotoxicity CHEAL ([7]; 10 g/ha): 93%

CCOC(=O)COc1ncccc1Oc1cc(-n2c(=O)cc(C(F)(F)F)n(C)c2=O)c(F)cc1Cl [B-V]
percentage phytotoxicity STEME (Stellaria media (STEME); 0.08 g/ha): 15%
percentage phytotoxicity STEME (Stellaria media (STEME); 0.16 g/ha): 45%
percentage phytotoxicity STEME (Stellaria media (STEME); 0.32 g/ha): 85%
percentage phytotoxicity STEME (Stellaria media (STEME); 0.625 g/ha): 95%
percentage phytotoxicity STEME (Stellaria media (STEME); 1.25 g/ha): 100%
percentage phytotoxicity IPOHE ([1]; 0.08 g/ha): 23%
percentage phytotoxicity IPOHE ([1]; 0.16 g/ha): 50%
percentage phytotoxicity IPOHE ([1]; 0.32 g/ha): 55%
percentage phytotoxicity IPOHE ([1]; 0.625 g/ha): 93%
percentage phytotoxicity IPOHE ([1]; 1.25 g/ha): 88%
percentage phytotoxicity ABUTH ([2]; 0.08 g/ha): 23%
percentage phytotoxicity ABUTH ([2]; 0.16 g/ha): 75%
percentage phytotoxicity ABUTH ([2]; 0.32 g/ha): 85%
percentage phytotoxicity ABUTH ([2]; 0.625 g/ha): 100%
percentage phytotoxicity ABUTH ([2]; 1.25 g/ha): 100%
percentage phytotoxicity DIGSA ([3]; 0.08 g/ha): 0%
percentage phytotoxicity DIGSA ([3]; 0.16 g/ha): 13%
percentage phytotoxicity DIGSA ([3]; 0.32 g/ha): 40%
percentage phytotoxicity DIGSA ([3]; 0.625 g/ha): 50%
percentage phytotoxicity DIGSA ([3]; 1.25 g/ha): 68%
percentage phytotoxicity LOLPE (Lolium perenne (LOLPE); 0.08 g/ha): 0%
percentage phytotoxicity LOLPE (Lolium perenne (LOLPE); 0.16 g/ha): 5%
percentage phytotoxicity LOLPE (Lolium perenne (LOLPE); 0.32 g/ha): 38%
percentage phytotoxicity LOLPE (Lolium perenne (LOLPE); 0.625 g/ha): 30%
percentage phytotoxicity LOLPE (Lolium perenne (LOLPE); 1.25 g/ha): 60%
percentage phytotoxicity ALOMY ([4]; 0.08 g/ha): 0%
percentage phytotoxicity ALOMY ([4]; 0.16 g/ha): 5%
percentage phytotoxicity ALOMY ([4]; 0.32 g/ha): 50%
percentage phytotoxicity ALOMY ([4]; 0.625 g/ha): 55%
percentage phytotoxicity ALOMY ([4]; 1.25 g/ha): 78%
percentage phytotoxicity ECHCG ([5]; 0.08 g/ha): 0%
percentage phytotoxicity ECHCG ([5]; 0.16 g/ha): 0%
percentage phytotoxicity ECHCG ([5]; 0.32 g/ha): 10%
percentage phytotoxicity ECHCG ([5]; 0.625 g/ha): 8%
percentage phytotoxicity ECHCG ([5]; 1.25 g/ha): 20%
percentage phytotoxicity SETFA (Setaria faberi (SETFA); 0.08 g/ha): 0%
percentage phytotoxicity SETFA (Setaria faberi (SETFA); 0.16 g/ha): 0%
percentage phytotoxicity SETFA (Setaria faberi (SETFA); 0.32 g/ha): 20%
percentage phytotoxicity SETFA (Setaria faberi (SETFA); 0.625 g/ha): 20%
percentage phytotoxicity SETFA (Setaria faberi (SETFA); 1.25 g/ha): 33%
percentage phytotoxicity AMARE ([6]; 0.08 g/ha): 35%
percentage phytotoxicity AMARE ([6]; 0.16 g/ha): 100%
percentage phytotoxicity AMARE ([6]; 0.32 g/ha): 100%
percentage phytotoxicity AMARE ([6]; 0.625 g/ha): 100%
percentage phytotoxicity AMARE ([6]; 1.25 g/ha): 100%
percentage phytotoxicity CHEAL ([7]; 0.08 g/ha): 8%
percentage phytotoxicity CHEAL ([7]; 0.16 g/ha): 63%
percentage phytotoxicity CHEAL ([7]; 0.32 g/ha): 78%
percentage phytotoxicity CHEAL ([7]; 0.625 g/ha): 80%
percentage phytotoxicity CHEAL ([7]; 1.25 g/ha): 95%
